Laboratory results from patent US6723897B2, “Methods for controlling gibberellin levels” (Monsanto Technology, LLC, priority 1998, dated 2004).

Legend:
wild-type A3237 soybean = assay: Hilum treatment of soybean seeds, seedling growth and development, wild-type soybean; type: in vivo, Glycine max; parameters: key to Emergence timing / Hypocotyl length (6 DAP) / 1st internode length (12 DAP) / 3rd internode length (20 DAP): pos: emergence faster/stem segment longer than controls; 0: emergence timing/stem segment length similar to controls; neg: emergence slower/stem segment shorter than controls; conditions: for Lowest rate where biological activity is observed, 1st internode length (10 DAP) / Lowest rate where biological activity is observed, emergence timing / Lowest rate where biological activity is observed, hypocotyl length (5 DAP): rate response; for 1st internode length (12 DAP) / Emergence timing / Hypocotyl length (6 DAP): single rate per compound 8.3-16.5 μg/seed
Experimental: (§1) In the previous experiments, the effect of various GA compounds on transgenic, GA-deficient and wild-type soybean is evaluated by treating seeds with these compounds via imbibition. Several of these compounds are not completely soluble in water, which limited the interpretation of their utility in rescuing GA-deficient dwarf plants. The purpose of this experiment is to reevaluate selected, previously tested compounds, and additional compounds, by introducing them to the seed via the hilum. As shown by the results presented below, direct application of small quantities of GA compounds dissolved in an organic solvent to the hilum is an effective method of treating soybean seeds. As in the previously described experiments, comparison is made between activity on GA-deficient soybean seedlings and normal (wild-type) seedlings. […] soybean seeds are supplied by Asgrow Seed Company (Des Moines, Iowa). Seed of GA-deficient transgenic soybean line 719 is created by transformation of […] soybean with pMON29801 (FMV/antisense CPScc). Fifth generation seed (R5) is used for these experiments. […] When multiple droplets are applied, each 1 μl droplet is allowed to dry before subsequent droplets are added. Ethanol minus compound is used a treatment control. […] (29° C.) and 75° F. (24° C.), respectively. Emergence timing is measured by counting the number of emerged seedlings at different times after planting. Emergence is defined as the presence of cotyledons raised to soil level or above. […] To assess the ability of a seed treatment to deliver biological activity beyond the first internode, measurements are taken on selected treatments after prolonged growth and development.

[1] = system: GA-deficient transgenic soybean line 719 (R5); assay: Hilum treatment of soybean seeds, seedling growth and development, GA-deficient soybean; type: in vivo, Glycine max; parameters: key to Emergence timing / Hypocotyl length (6 DAP) / 1st internode length (12 DAP) / 3rd internode length (20 DAP) / 2nd internode length (12 DAP): pos: emergence faster/stem segment longer than controls; 0: emergence timing/stem segment length similar to controls; neg: emergence slower/stem segment shorter than controls; conditions: for Lowest rate where biological activity is observed, 1st internode length (10 DAP) / Lowest rate where biological activity is observed, emergence timing / Lowest rate where biological activity is observed, hypocotyl length (5 DAP) / 1st internode length (12 DAP) / Emergence timing / Hypocotyl length (6 DAP): L719, hilum treatment; for Lowest rate where biological activity is observed, 1st internode length (10 DAP) / Lowest rate where biological activity is observed, emergence timing / Lowest rate where biological activity is observed, hypocotyl length (5 DAP): rate response; for 1st internode length (12 DAP) / Emergence timing / Hypocotyl length (6 DAP): single rate per compound 8.3-16.5 μg/seed; for activity on line 719 in terms of emergence timing and hypocotyl length: single rate, concentration that does not affect normal plant tissue
Experimental: as §1

SMILES	Lowest rate where biological activity is observed, 1st internode length (10 DAP) (wild-type A3237 soybean) [μg/seed]	Lowest rate where biological activity is observed, emergence timing (wild-type A3237 soybean) [μg/seed]	Lowest rate where biological activity is observed, hypocotyl length (5 DAP) (wild-type A3237 soybean) [μg/seed]	1st internode length (12 DAP) (wild-type A3237 soybean)	Emergence timing (wild-type A3237 soybean)	Hypocotyl length (6 DAP) (wild-type A3237 soybean)	Lowest rate where biological activity is observed, 1st internode length (10 DAP) [1] [μg/seed]	Lowest rate where biological activity is observed, emergence timing [1] [μg/seed]	Lowest rate where biological activity is observed, hypocotyl length (5 DAP) [1] [μg/seed]	1st internode length (12 DAP) [1]	Emergence timing [1]	Hypocotyl length (6 DAP) [1]	activity on line 719 in terms of emergence timing and hypocotyl length ([1]; hilum)	confirmation of activity previously observed ([1]; rate up to 100 ng/seed, hilum)
C=C1C[C@]23C[C@@]1(O)CC[C@H]2[C@]1(C)CCC[C@@](C)(C(=O)O)[C@H]1[C@@H]3C(=O)O [GA53]	>10	>10	>10	neg	0	0	>10	1	1	0	pos	pos	biologically active	–
C=C1C[C@@]23CC[C@@H]4[C@](C)(CO)CCC[C@@]4(C)[C@@H]2CC[C@@H]1C3 [kaurenol]	>100	>100	>100	0	0	0	>100	>100	>100	0	pos	pos	biologically active	not confirmed
